Assay results reported in patent US20190060428A1, “FORMULATIONS FOR NEOPLASIA VACCINES AND METHODS OF PREPARING THEREOF” (The Broad Institue Inc., priority 2015, published 2019).

Assays:
Format in all cases: physicochemical
[1] = Peptide diluent matrix (precipitation of DMSO dissolved peptides in various liquids); parameters: key to Precipitation in diluent: Liposome / Precipitation in diluent: PBS pH 7.4 / Precipitation in diluent: Water / Precipitation in diluent: 10% Sucrose / Precipitation in diluent: D5W (5% Dextrose USP Grade Inj): P = precipitation; NP = no precipitation; conditions: for Precipitation in diluent: 10% Sucrose: 10-20 μL DMSO dissolved peptide added to 10% Sucrose; for Precipitation in diluent: D5W (5% Dextrose USP Grade Inj): 10-20 μL DMSO dissolved peptide added to D5W; for Precipitation in diluent: Liposome: 10-20 μL DMSO dissolved peptide added to Liposome; for Precipitation in diluent: PBS pH 7.4: 10-20 μL DMSO dissolved peptide added to PBS pH 7.4; for Precipitation in diluent: Water: 10-20 μL DMSO dissolved peptide added to Water
Description: Additional peptide solubility conditions were tested. Peptides CS6709, CS6712, CS6720, CS6726, and CS6783 were weighed at approximately 10 mg each. The peptides were then dissolved in approximately 200 μL USP grade DMSO to obtain a 50 mg/mL concentration for each peptide. […] The sample appeared to be cloudy. Additional 50 μL increments of DMSO were added to Peptide CS6709 up to 400 μL; for a total of 600 μL of DMSO. […] To dilute the peptides to 400 μg, a PBS pH 7.4 solution without potassium was prepared. All 5 DMSO peptide samples (50 mg/mL) were placed in a single vial for dilution to 400 μg/mL. Each DMSO peptide was added to the vial at 40 μL, except for CS6709 which was at a concentration of 16.67 mg/mL. The volume of CS6709 added to the single vial was 120 μL. The samples were diluted to 400 μg by adding 4.72 mL PBS pH 7.4. Upon addition of the PBS pH 7.4, it was observed that one or more of the peptides had precipitated out. To determine which of the peptides precipitated, Applicants followed the matrix in Table 5 below using very small amounts (10-20 μL) of the DMSO dissolved peptides and adding these peptides to the various liquids.

[2] = Solubility of peptides in DMSO (50 mg/ml)
Description: The only problematic peptides are very hydrophobic peptides. Additional peptide solubility conditions were tested. Peptides CS6709, CS6712, CS6720, CS6726, and CS6783 were weighed at approximately 10 mg each. The peptides were then dissolved in approximately 200 μL USP grade DMSO to obtain a 50 mg/mL concentration for each peptide. […] The sample appeared to be cloudy. Additional 50 μL increments of DMSO were added to Peptide CS6709 up to 400 μL; for a total of 600 μL of DMSO.

[3] = Direct dissolution of peptides in D5W without DMSO; conditions: <1 mg peptide
[4] = pH of peptide solutions in DMSO/D5W, with succinate, and with Hiltonol

Precipitation in diluent: 10% Sucrose [1]	Precipitation in diluent: D5W (5% Dextrose USP Grade Inj) [1]	Precipitation in diluent: Liposome [1]	Precipitation in diluent: PBS pH 7.4 [1]	Precipitation in diluent: Water [1]	Concentration at which peptide went into solution (clear) in DMSO [2]	Dissolution in DMSO at 50 mg/mL ([2]; 10.02 mg in 200 μL DMSO)	Dissolution directly in D5W without using DMSO [3]	Precipitation when PBS pH 7.4 added as diluent to the peptide mixture ([1]; dilution to 400 μg/mL)	pH of peptides in DMSO/D5W [4]	Substance
NP	NP	NP	NP	NP	16670 µg/mL	did not fully dissolve	could be dissolved directly in D5W			H-LTDLPGRIRVAPQQNDLDSPQQISISNAE-OH [CS6709]
NP	NP	NP	NP	NP			could be dissolved directly in D5W			H-SPTEPSTKLPGFDSCGNTEIAERKIKRIYGGFK-OH [CS6720]
NP	NP	NP	NP	NP			could be dissolved directly in D5W			H-DSAVDKGHPNRSALSLTPGLRIGPSGIPQAGLG-OH [CS6726]
NP	NP	P	P	NP			could not be dissolved	precipitate	3.96	H-LLTDRNTSGTTFTLLGVSDYPELQVPLFLVFLA-OH [CS6783]
NP	NP	NP	NP	NP			could be dissolved directly in D5W			H-LKDSNSWPPSNKRGFDTEDAHKSNATPVP-OH [CS6712]
